Holding throughout (type): in vivo
Common to all, as to conditions: active ingredient amount 31 g/ha, 14th day after application

In assay [1] the test system is wheat (Triticum aestivum L.). Nature of the assay: Test Example 1: foliar treatment, growth inhibition rate on 14th day. In short, it runs like this: (§1)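 Using a small sprayer, formulated compound in water (0.1 vol % surfactant, 1,000 L/ha) was applied to seedlings grown from seed in upland soil. Fourteen days on, growth state was observed and expressed as percent inhibition from 0 to 100.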

In assay [2] the test system is wild oat (Avena fatua L.). The description is as above. The method in brief:
(§2)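 Visual 0–100% inhibition scoring (100 = complete kill) at 14 days after foliar treatment of soil-grown seedlings at species-specific leaf stages, with the compound sprayed as a wettable powder or emulsifiable concentrate dilution.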

Assay [3] concerns corn (Zea mays L.). Described as above. The method in brief:
as §1

The test system of assay [4] is rice (Oryza sativa L.). Described as above. In short, it runs like this: as §2
Assay [5] deals with barnyardgrass (Echinochloa crus-qalli L.). The description is as above. The method in brief:
as §1

Assay [6] deals with redroot pigweed (Amaranthus retroflexus L.). The assay is described as above. The method in brief: as §1
For assay [7], the system named is crabgrass (Digitaria sanquinalis L.). The description is as above. In short, it runs like this:
as §1

For assay [8], the system named is italian ryegrass (Lolium multiflorum Lam.). The assay is described as above. In short, it runs like this: as §1
Assay [9] relates to green foxtail (Setaria viridis L.). Described as above. The method in brief: as §2
In assay [10] the test system is soybean (Glycine max Merr.). Described as above. The method in brief: as §2
Assay [11] has as its system wheat (Triticum aestivum L.). Description: Test Example 2: soil application on the day after sowing, growth inhibition rate on 14th day. The method in brief:
(§3)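 Upland soil pots; sowing, then next-day soil spraying of compound formulations (1,000 L/ha water) at defined a.i. doses. Day-14 visual rating of inhibition on a 0–100 scale, where 100 means complete kill.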

Assay [12] relates to corn (Zea mays L.). The description is as above. The method in brief: as §3
Assay [13] has as its system rice (Oryza sativa L.). The assay is described as above. In short, it runs like this: as §3
The subject of assay [14] is barnyardgrass (Echinochloa crus-qalli L.). The description is as above. The method in brief:
as §3

For assay [15], the system named is redroot pigweed (Amaranthus retroflexus L.). The assay is described as above. The method in brief: as §3
In assay [16] the test system is velvetleaf (Abutilon theophrasti MEDIC.). The description is as above. In short, it runs like this:
as §3

In assay [17] the test system is prickly sida (Sida spinosa L.). The assay is described as above. In short, it runs like this:
as §3

Assay [18] concerns crabgrass (Digitaris sanquinalis L.). The assay is described as above. In short, it runs like this:
as §3

The test system of assay [19] is green foxtail (Setaria viridis L.). Described as above. In short, it runs like this: as §3
In assay [20] the test system is soybean (Glycine max Merr.). The assay is described as above. In short, it runs like this:
as §3

As for `CC(=O)Oc1c(C)nn(C)c(=O)c1-c1cc(Oc2nc3ccc(Br)cc3s2)ccc1C` [Compound 2-158], the “Growth inhibition rate (%) Wheat” value amounted to 93% in [1] and 0% in assay [11]. In addition, the “Growth inhibition rate (%) Wild oat” value in assay [2] turned out to be 65%. Further, the “Growth inhibition rate (%) Corn” value was determined as 0% in the assay on corn (Zea mays L.) [3] and 10% in the assay with corn (Zea mays L.) [12]. Also, the “Growth inhibition rate (%) Rice” value in the assay with rice (Oryza sativa L.) [4] was found to be 60%; in the assay with rice (Oryza sativa L.) [13] it was 0%. Also, the results for the “Growth inhibition rate (%) Barnyardgrass” value in assay [5] and in assay [14] were 100% and 80%, respectively. For the same compound, the “Growth inhibition rate (%) Redroot pigweed” value in assay [6] and in assay [15] was 0% in each case. The results for the “Growth inhibition rate (%) Crabgrass” value in assay [7] and in assay [18] were 93% and 70%, respectively. Also, the “Growth inhibition rate (%) Italian ryegrass” value in assay [8] was determined as 65%. In addition, the entries for the “Growth inhibition rate (%) Green foxtail” value in assay [9] and in assay [19] were 98% and 95%, respectively. The “Growth inhibition rate (%) Soybean” value in assay [10] and in assay [20] was 0% throughout. The “Growth inhibition rate (%) Velvetleaf” value in assay [16] was found to be 0%. Further, the “Growth inhibition rate (%) Prickly sida” value in assay [17] worked out at 0%.

For `CCc1ccc(Oc2nc3ccc(Cl)cc3o2)cc1-c1c(OC(C)=O)c(C)nn(C)c1=O` [Compound 2-159], the “Growth inhibition rate (%) Wheat” value in assay [1] is listed as 99%; in [11], 0%. Also, the “Growth inhibition rate (%) Wild oat” value in assay [2] is on record as 100%. The “Growth inhibition rate (%) Corn” value with corn (Zea mays L.) [3] was 100%; in the assay with corn (Zea mays L.) [12], 0%. The results for the “Growth inhibition rate (%) Rice” value in the assay on rice (Oryza sativa L.) [4] and in the assay with rice (Oryza sativa L.) [13] were 100% and 0%, respectively. The “Growth inhibition rate (%) Barnyardgrass” value in assay [5] and in assay [14] was 100% throughout. Further, the “Growth inhibition rate (%) Redroot pigweed” value in assay [6] and in assay [15] was 0% each time. Besides, the results for the “Growth inhibition rate (%) Crabgrass” value in assay [7] and in assay [18] were 100% and 98%, respectively. Moreover, the “Growth inhibition rate (%) Italian ryegrass” value in assay [8] is 100%. Besides, the “Growth inhibition rate (%) Green foxtail” value in [9] came out at 100%; in assay [19], 99%. In addition, the “Growth inhibition rate (%) Soybean” value in [10] turned out to be 35%; in assay [20] it was 0%. Further, the “Growth inhibition rate (%) Velvetleaf” value in assay [16] is 0%. For the same compound, the “Growth inhibition rate (%) Prickly sida” value in [17] is given as 0%.

Consider `CCc1ccc(Oc2nc3ccc(Cl)cc3o2)cc1-c1c(OC(C)=O)cnn(C)c1=O` [Compound 2-160], for which the entries for the “Growth inhibition rate (%) Wheat” value in assay [1] and in [11] were 99% and 0%, respectively. Besides, in assay [2], the “Growth inhibition rate (%) Wild oat” value is recorded as 100%. Moreover, the “Growth inhibition rate (%) Corn” value turned out to be 100% in the assay with corn (Zea mays L.) [3] and 0% with corn (Zea mays L.) [12]. In addition, the entries for the “Growth inhibition rate (%) Rice” value in the assay with rice (Oryza sativa L.) [4] and in the assay with rice (Oryza sativa L.) [13] were 100% and 0%, respectively. Further, the “Growth inhibition rate (%) Barnyardgrass” value in [5] and in assay [14] was 100% each time. The “Growth inhibition rate (%) Redroot pigweed” value is reported as 0% in assay [6] and 95% in assay [15]. In addition, the “Growth inhibition rate (%) Crabgrass” value in [7] was 100%; in [18] it was 99%. Also, the “Growth inhibition rate (%) Italian ryegrass” value in assay [8] is recorded as 100%. Besides, the “Growth inhibition rate (%) Green foxtail” value in [9] and in [19] was 100% throughout. Moreover, the “Growth inhibition rate (%) Soybean” value turned out to be 30% in assay [10] and 0% in assay [20]. Besides, the “Growth inhibition rate (%) Velvetleaf” value in assay [16] was determined as 0%. In addition, the “Growth inhibition rate (%) Prickly sida” value in [17] came to 50%.

Consider `CCc1ccc(Oc2nc3cc(Cl)ccc3o2)cc1-c1c(O)c(C)nn(C)c1=O` [Compound 2-161], for which the “Growth inhibition rate (%) Wheat” value in assay [1] is given as 85%; in [11], 0%. Further, in assay [2], the “Growth inhibition rate (%) Wild oat” value is on record as 99%. In addition, the “Growth inhibition rate (%) Corn” value in the assay with corn (Zea mays L.) [3] stood at 90%; in the assay on corn (Zea mays L.) [12], 0%. Also, the “Growth inhibition rate (%) Rice” value is 99% with rice (Oryza sativa L.) [4] and 0% in the assay with rice (Oryza sativa L.) [13]. Besides, the “Growth inhibition rate (%) Barnyardgrass” value is listed as 100% in assay [5] and 98% in assay [14]. Also, the “Growth inhibition rate (%) Redroot pigweed” value in assay [6] is reported as 40%; in assay [15], 0%. Moreover, the figures for the “Growth inhibition rate (%) Crabgrass” value in assay [7] and in assay [18] were 83% and 0%, respectively. The “Growth inhibition rate (%) Italian ryegrass” value in assay [8] is 99%. Moreover, the “Growth inhibition rate (%) Green foxtail” value is 100% in [9] and 0% in assay [19]. The “Growth inhibition rate (%) Soybean” value in [10] and in assay [20] was 0% in each case. In [16], the “Growth inhibition rate (%) Velvetleaf” value turned out to be 0%. In addition, in [17], the “Growth inhibition rate (%) Prickly sida” value worked out at 0%.

With `Cc1ccc(Oc2nc3ccc(Cl)cc3o2)cc1-c1c(O)cnn(C)c1=O` [Compound 2-163], the entries for the “Growth inhibition rate (%) Wheat” value in [1] and in [11] were 10% and 20%, respectively. For the same compound, the “Growth inhibition rate (%) Wild oat” value in assay [2] was found to be 75%. The “Growth inhibition rate (%) Corn” value in the assay on corn (Zea mays L.) [3] was 80%; in the assay with corn (Zea mays L.) [12] it was 15%. In addition, the “Growth inhibition rate (%) Rice” value in the assay with rice (Oryza sativa L.) [4] worked out at 35%; in the assay on rice (Oryza sativa L.) [13], 20%. The “Growth inhibition rate (%) Barnyardgrass” value stood at 100% in assay [5] and 98% in assay [14]. In addition, the “Growth inhibition rate (%) Redroot pigweed” value in assay [6] and in [15] was 0% each time. In addition, the “Growth inhibition rate (%) Crabgrass” value in assay [7] came out at 95%; in assay [18], 98%. Moreover, the “Growth inhibition rate (%) Italian ryegrass” value in [8] was 88%. Besides, the “Growth inhibition rate (%) Green foxtail” value in [9] came out at 100%; in assay [19] it was 99%. Besides, the “Growth inhibition rate (%) Soybean” value in assay [10] was determined as 35%; in assay [20], 0%. For the same compound, in assay [16], the “Growth inhibition rate (%) Velvetleaf” value was found to be 0%. For the same compound, in [17], the “Growth inhibition rate (%) Prickly sida” value came out at 0%.

Consider `CC(=O)Oc1cnn(C)c(=O)c1-c1cc(Oc2nc3ccc(Cl)cc3o2)ccc1C` [Compound 2-164], for which the figures for the “Growth inhibition rate (%) Wheat” value in assay [1] and in [11] were 10% and 0%, respectively. The “Growth inhibition rate (%) Wild oat” value in assay [2] is 90%. Besides, the “Growth inhibition rate (%) Corn” value with corn (Zea mays L.) [3] turned out to be 90%; in the assay with corn (Zea mays L.) [12] it was 0%. In addition, the entries for the “Growth inhibition rate (%) Rice” value in the assay with rice (Oryza sativa L.) [4] and with rice (Oryza sativa L.) [13] were 83% and 0%, respectively. For the same compound, the “Growth inhibition rate (%) Barnyardgrass” value in assay [5] is on record as 100%; in [14], 50%. The “Growth inhibition rate (%) Redroot pigweed” value in [6] and in assay [15] was 0% throughout. Also, the “Growth inhibition rate (%) Crabgrass” value in assay [7] is listed as 100%; in assay [18] it was 98%. Further, the “Growth inhibition rate (%) Italian ryegrass” value in [8] was 95%. Also, the “Growth inhibition rate (%) Green foxtail” value in assay [9] worked out at 100%; in assay [19], 90%. In addition, the entries for the “Growth inhibition rate (%) Soybean” value in assay [10] and in [20] were 40% and 0%, respectively. Moreover, in assay [16], the “Growth inhibition rate (%) Velvetleaf” value was 0%. The “Growth inhibition rate (%) Prickly sida” value in assay [17] was 0%.

Turning to `CCc1ccc(Oc2nc3ccccc3o2)cc1-c1c(O)c(C)nn(C)c1=O` [Compound 2-165], the “Growth inhibition rate (%) Wheat” value in assay [1] and in assay [11] was 0% each time. Moreover, the “Growth inhibition rate (%) Wild oat” value in assay [2] was 0%. The “Growth inhibition rate (%) Corn” value is given as 35% in the assay on corn (Zea mays L.) [3] and 0% with corn (Zea mays L.) [12]. For the same compound, the “Growth inhibition rate (%) Rice” value in the assay with rice (Oryza sativa L.) [4] is 25%; with rice (Oryza sativa L.) [13], 70%. In addition, the “Growth inhibition rate (%) Barnyardgrass” value in assay [5] is reported as 100%; in [14], 99%. Further, the “Growth inhibition rate (%) Redroot pigweed” value in assay [6] and in assay [15] was 0% each time. For the same compound, the “Growth inhibition rate (%) Crabgrass” value in [7] is 70%; in [18], 98%. In addition, in assay [8], the “Growth inhibition rate (%) Italian ryegrass” value stood at 0%. Besides, the “Growth inhibition rate (%) Green foxtail” value in assay [9] turned out to be 88%; in assay [19], 99%. For the same compound, the entries for the “Growth inhibition rate (%) Soybean” value in [10] and in assay [20] were 25% and 0%, respectively. Besides, in assay [16], the “Growth inhibition rate (%) Velvetleaf” value amounted to 0%. For the same compound, the “Growth inhibition rate (%) Prickly sida” value in assay [17] stood at 0%.
